Results taken from ChEMBL document CHEMBL3763153, “Recent Update on Human Lactate Dehydrogenase Enzyme 5 (hLDH5) Inhibitors: A Promising Approach for Cancer Chemotherapy” (J Med Chem, 2016).

Columns and labels:
[1] = target: T1, L-lactate dehydrogenase A chain (Homo sapiens, UniProt P00338)
Description: Competitive inhibition of human LDH5 in presence of NADH

[2] = target: L-lactate dehydrogenase B chain (Homo sapiens, UniProt P07195)
Description: Competitive inhibition of human LDH1 in presence of NADH

[3] = target: T1, L-lactate dehydrogenase A chain; test: Competitive inhibition of human LDH5 incubated for 15 mins in presence of NADH by fluorescence analysis

Chain of L-lactate dehydrogenase B chain (P07195 whole entry): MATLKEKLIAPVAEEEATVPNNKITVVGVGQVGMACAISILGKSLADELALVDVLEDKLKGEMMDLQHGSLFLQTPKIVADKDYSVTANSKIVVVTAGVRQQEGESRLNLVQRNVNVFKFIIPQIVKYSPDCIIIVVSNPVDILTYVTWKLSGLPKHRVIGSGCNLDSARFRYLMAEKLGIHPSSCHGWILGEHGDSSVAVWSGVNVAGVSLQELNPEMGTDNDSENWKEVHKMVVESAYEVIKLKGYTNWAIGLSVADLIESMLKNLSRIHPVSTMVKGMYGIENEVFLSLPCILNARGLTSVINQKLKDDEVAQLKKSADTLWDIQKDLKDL

Row | SMILES | Ki [1] | Ki [2] | other results
1 | Cc1cc2c(C(C)C)c(O)c(O)c3c2c(c1-c1c(C)cc2c(C(C)C)c(O)c(O)c4c2c1OC4=O)OC3=O | 600 nM | 400 nM | 
2 | CCCc1c(O)c(O)c(C(=O)O)c2ccc(C)cc12 | 1000 nM |  | 
3 | O=C(O)CCCc1ccc(-n2cc(CCCn3cc(C4=C(c5c[nH]c6ccccc56)C(=O)NC4=O)c4ccccc43)nn2)cc1 |  |  | IC50 [1]: 14800 nM
4 | Cc1cc2c(C(C)C)c(O)c(O)c(C(=O)O)c2cc1Cc1ccccc1 | 200 nM |  | 
5 | O=C(O)CCCCn1cc(CCCCn2cc(C3=C(c4c[nH]c5ccccc45)C(=O)NC3=O)c3ccccc32)nn1 |  |  | IC50 [1]: 35900 nM
6 | Cc1ccc(-c2cc3c(C(=O)O)c(O)c(O)c(C(C)C)c3cc2C)cc1 | 30 nM | 8000 nM | 
7 | Cc1ccccc1-c1cc2c(C(=O)O)c(O)c(O)c(C(C)C)c2cc1C | 3000 nM | > 125000 nM | 
8 | O=C(O)c1cc2c(C(F)(F)F)cc(-c3ccccc3)cc2n1O[C@@H]1O[C@H](CO)[C@@H](O)[C@H](O)[C@H]1O |  |  | Ki [3]: 19500 nM
9 | Cc1cc2c(C(C)C)c(O)c(O)c(C(=O)O)c2cc1Cc1ccc(Cl)cc1 | 1000 nM | 8000 nM | 
10 | Cc1cc2c(C(C)C)c(O)c(O)c(C(=O)O)c2cc1-c1ccc2c(C(C)C)c(O)c(O)c(C(=O)O)c2c1 | 1300 nM | 700 nM | 
11 | Cc1cccc(-c2cc3c(C(=O)O)c(O)c(O)c(C(C)C)c3cc2C)c1 | 200 nM |  | 
12 | Cc1cc2c(C(C)C)c(O)c(O)c3c2c(c1-c1c(C)cc2c(C(C)C)c(O)c(O)c4c2c1OC4=N)OC3=N | 2500 nM | 92000 nM | 
13 | CC(=O)Oc1c(-c2c(C)cc3c(C(C)C)c(O)c(O)c(C#N)c3c2OC(C)=O)c(C)cc2c(C(C)C)c(O)c(O)c(C#N)c12 | 2000 nM |  | 
14 | CCCCC(=O)Oc1c(-c2c(C)cc3c(C(C)C)c(O)c(O)c(C#N)c3c2OC(=O)CCCC)c(C)cc2c(C(C)C)c(O)c(O)c(C#N)c12 | 9100 nM |  | 
15 | Cc1cc2c(C(C)C)c(O)c(O)c(C=O)c2c(O)c1-c1c(C)cc2c(C(C)C)c(O)c(O)c(C=O)c2c1O [GOSSYPOL] | 1900 nM |  | 
16 | NC(=O)C(=O)O [OXAMATE] |  | 94400 nM | 
